Laboratory results published in patent publication US7998937B2, “Flavonoid compound having an antiviral activity” (Korea Research Institute of Bioscience and Biotechnology, priority 2005, dated 2011).

Legend:
[1] = system: porcine transmissible gastroenteritis virus (TGEV); assay: Anti-coronavirus inhibitory activity against TGEV in ST cells; assay type: cell-based; settings: 48 hours
Procedure: (§1) Antiviral activity of quercetin-7-rhamnoside against porcine transmissible gastroenteritis virus (TGEV) and porcine respiratory coronavirus (PRCV), another kind of coronaviruses, was evaluated. ST cells were cultured on a 96-well microplate until the bottom of each well was completely covered with cells. Remaining culture medium was completely removed and each well was washed twice with a phosphate buffer. TGEV or PRCV solution adjusted to a concentration of TCID50 was added to each well. Each of quercetin-7-rhamnoside, conventional antiviral agents purchased from Sigma-ribavirin, lamivudine, azidovudine, acycloguanine and glycyrrhizhin-dissolved in dimethyl sulfoxide was added to each well to a final concentration of 0.1-100 μg/mL. […] Similarly to the aforesaid evaluation of antiviral inhibitory activity against PEDV, c ells treated with DMSO only and those treated with both DMSO and TGEV or both DMSO and PRCV were used as control groups.

[2] = system: porcine respiratory coronavirus (PRCV); assay: Anti-coronavirus inhibitory activity against PRCV in ST cells; assay type: cell-based; settings: 48 hours
Procedure: as §1

[3] = system: influenza type A (H1N1/WS/33) virus; assay: Antiviral activity against influenza type A virus in MDCK cells (SRB); assay type: cell-based, influenza virus type A (H1N1; WS/33 strain); settings: 10 μg/mL, influenza A H1N1/WS/33 in MDCK cells, 48 hours, repeated 3 times
Procedure: In order to evaluate the inhibitory activity of quercetin-7-rhamnoside against influenza virus, the following in vitro test was performed using MDCK cells derived from dog kidney.
Inhibitory activity of quercetin-7-rhamnoside against viral proliferation was measured by the method proposed by Kwon Dur-Han, et al. (Korean Patent Application No. 2004-101863). Inhibitory activity against influenza virus type A (H1N1; WS/33 strain) was measured. MDCK cells were cultured on a 96-well microplate until the bottom of each well was completely covered with cells. Remaining culture medium was completely removed and each well was washed twice with a phosphate buffer. Each of quercetin-7-rhamnoside; conventional antiviral agents purchased from Sigma-ribavirin and amantadine; oseltamivir (trade name: Tamiflu) purchased from Roche; and zanamivir (trade name: Relenza) purchased from Glaxo Wellcome; dissolved in dimethyl sulfoxide was added to each well to a final concentration of 10 μg/mL. […] After adding 100 μL of 70% acetone, each well was kept at −20° C. for 1 hour. After drying in a desiccator, 100 μL of 0.4% (w/v) SRB (sulforhodamine B) solution dissolved in 1% (v/v) acetic acid was added. After 30 minutes' staining, the SRB staining solution not bound to the cells was washed off with 1% (v/v) acetic acid for 4 times. After drying, 100 μL of 10 mM Tris solution (pH 10.5) was added to each well to dissolve the stained substance at the bottom of the well. Light absorbance was measured at 562 nm to evaluate the antiviral activity. As control group, viability of cells treated with DMSO only was compared with those treated with both DMSO and virus. Each test was repeated 3 times.

[4] = system: influenza type B (B/Lee/40) virus; assay: Inhibitory activity against influenza type B virus in MDCK cells (SRB); assay type: cell-based; settings: 10 μg/mL, influenza B/Lee/40 in MDCK cells, 48 hours, repeated 3 times
rotavirus (strain: OSU) = assay: Inhibitory activity against rotavirus in MA104 cells (SRB); assay type: cell-based; settings: 10 μg/mL, rotavirus OSU in MA104 cells, 48 hours, repeated 2 times
Procedure: (§2) In order to evaluate the inhibitory activity of quercetin-7-rhamnoside against rota virus, the following in vitro test was performed using MA014 cells derived from pig kidney. Inhibitory activity of quercetin-7-rhamnoside against viral proliferation was measured by the method proposed by Kwon Dur-Han, et al. (Korean Patent Publication No. 2004-101863). Inhibitory activity against rotavirus (strain: OSU) was measured. MA104 cells were cultured on a 96-well microplate until the bottom of each well was completely covered with cells. Remaining culture medium was removed and each well was washed twice with a phosphate buffer. A rota virus solution adjusted to a concentration of TCID 50 was added to each well. […] After 48 hours, the MA104 cells were observed under a microscope. After adding 100 μL of 70% acetone, each well was kept at −20° C. for 1 hour. After drying in a desiccator, 100 μL of 0.4% (w/v) SRB (sulforhodamine B) solution dissolved in 1% (v/v) acetic acid was added. After 30 minutes of staining, the SRB solution not bound to the cells was washed off with 1% (v/v) acetic acid for 4 times. After drying, 100 μL of 10 mM Tris solution (pH 10.5) was added to each well to dissolve the stained substance at the bottom of the well. Light absorbance was measured at 562 nm to evaluate the antiviral activity. As control group, viability of cells treated with DMSO only was compared with those treated with both DMSO and virus. Each test was repeated for 2 times.

[5] = system: rhinovirus (strain: rhinovirus 2); assay: Inhibitory activity against rhinovirus in HeLa cells (SRB); assay type: cell-based; settings: 10 μg/mL, rhinovirus 2 in HeLa cells, 48 hours, repeated 3 times
Procedure: as §2, with “against rhino” for “against rota”, “using HeLa, one of human cervical cancer cell lines, cells.” for “using MA014 cells derived from pig kidney.”, “2004-101863). […] HeLa” for “2004-101863). Inhibitory activity against rotavirus (strain: OSU) was measured. MA104”, “A rhino” for “A rota”, “the HeLa” for “the MA104”, “for 3” for “for 2”

mice = assay: Toxicity test in mice; assay type: in vivo; settings: 10 g/kg, dissolved in DMSO and diluted with water, observed for 7 days
Procedure: Toxicity test was performed as follows for the quercetin-7-rhamnoside of the present invention.
Quercetin-7-rhamnoside dissolved in dimethyl sulfoxide (DMSO) and diluted with water was administered to mice (10 per each group) at a dosage of 10 g/kg.

ST cells = assay: Cytotoxicity (CC50) in ST cells; settings: 0.1-100 μg/mL, 48 hours
Vero cells = assay: Cytotoxicity (CC50) in Vero cells; settings: 0.1-100 μg/mL, 48 hours
[6] = system: porcine epidemic diarrhea virus (PEDV); assay: Antiviral activity against PEDV in Vero cells (SRB staining); settings: PEDV in Vero cells, maximum dosage 100 μg/mL, 48 hours

C[C@@H]1O[C@@H](Oc2cc(O)c3c(=O)c(O)c(-c4ccc(O)c(O)c4)oc3c2)[C@H](O)[C@H](O)[C@H]1O [Quercetin-7-rhamnoside, quercetin-7-rhamnoside]
IC50 [1]: (63.3 μg/mL)] | IC50 [2]: (59.8 μg/mL)] | Inhibitory activity (%) (Mean ± S.D.) [3]: 66.03% | Inhibitory activity (%) (Mean ± S.D.) [4]: 92.66% | Inhibitory activity (%) (Mean ± S.D.) (rotavirus (strain: OSU)): 77.37% | Inhibitory activity (%) (Mean ± S.D.) [5]: 77.89% | deaths after administration (mice): none of them were found dead | CC50 (ST cells): > 100 µg/mL | CC50 (concentration required for 50% cytotoxicity) (Vero cells): > 100 µg/mL | IC50 (concentration required for 50% inhibition of viruses) [6]: (0.014 μg/mL)]
